Where a name gives a salt, the structure may show the parent alone.
What follows are molecules tested against T1, Insulin-like growth factor 2 receptor (IGF-1IR, cation-independent mannose-6-phosphate receptor, CI-MPR; hIGF-IIR) (Homo sapiens, UniProt P11717) (assay: HTRF-based ternary complex inhibition assay for relative affinity of IGF-IIR ligands). Conditions: competition with MTAC probe for His-tagged hIGF-IIR; biotinylated IgG1; apparent binding affinity; read-out: TCF INH (HTRF) IC50.
T1 construct: purchased R&D Systems 6418-GR
Procedure: The apparent binding affinity of Insulin-like growth factor 2 receptor (IGF-1IR, also called the cation- independent mannose-6-phosphate receptor (CI-MPR)) ligands was determined indirectly by competing with a probe molecule for binding to IGF-1IR. The probe is a Mannose 6-Phosphate Ligand (“Ligand”) and binds to hIGF-IIR and IgG1 to form a hIGF-IIR: Ligand: IgG1 ternary complex. The ternary complex was detected by an HTRF readout. The ternary complex is disrupted in the presence of IGF-1IR ligand, resulting in decreased HTRF signal. IGF-1IR ligands of 3-fold dilution series were prepared from 10 mM DMSO stock on a 384-well LDV microplate using Echo Acoustic Liquid Handler (Beckman Coulter Life Sciences) followed by transfer of 600 nL of the solutions to an OptiPlate 384-well microplate (PerkinElmer, 6007290). Manose-6-phosphate (M6P; J&K, 530168) and glucose-6-phosphate (G6P; Sigma, V900924) were prepared from 100 mM stock in the same manner and were used as positive and negative controls, respectively. The wells used as 0% and 100% inhibition controls were prepared by adding 600 nL DMSO. 20 nL of 50 μM MTAC probe was transferred to all wells except the wells used as 100% Inhibition control. 9.4 μL working solution containing 65.1 nM of Biotinylated-IgG1 (Viva 20211108) and 65.1 nM of His-tagged hIGF-IIR (R&D Systems, 6418-GR) in assay buffer 50 mM Tris, pH 7.5, 150 mM NaCl, 50 mM CaCl2, 0.01% Tween-20 was transferred to all wells. The plate was incubated at room temperature for 60 min with gentle shaking to allow molecular interaction to reach equilibration. Following this, 10 μL of HTRF detection solution containing 15 nM Streptavidin-d2 (PerkinElmer, 610SADLA) and 0.7 nM MAb Anti 6HIS—Tb cryptate (PerkinElmer, 61HISTLA) in PPI Terbium detection buffer (PerkinElmer, 61DB10RDF) was added. The assay plate was incubated at room temperature with gentle shaking for 60 min to allow HTRF signal to develop. The plate was gently spun on a centrifuge then placed on a EnVision plate reader (Perkin Elmer, EnVision 2104) to read fluorescence ratio of 665 nm/615 nm. Percent inhibitions were calculated with this equation: % I=100* [1−(X−100% I/(0% I−100% I)] where X is the […] in the presence of IGF-1IR ligand. The apparent binding affinity (presented as IC50) was calculated by fitting the % inhibition data with a non-linear 4-parameter inhibition equation using GraphPad Prism (GraphPad Software, LLC; version 9.4.1).

Row | Compound | IC50
1 | CC(=O)NS(=O)(=O)OC[C@H]1O[C@H](Oc2ccccc2)[C@@H](O)[C@@H](O)[C@@H]1O [Compound A4, ((2R,3S,4S,5S,6R)-3,4,5-trihydroxy-6-phenoxytetrahydro-2H-pyran-2-yl)methyl acetylsulfamate] | 100 to 300 µM
2 | C#C[C@H]1O[C@H](CCP(=O)(O)O)[C@@H](O)[C@H](O)[C@@H]1O [Compound A20, (2-((2R,3S,4S,5S,6R)-6-ethynyl-3,4,5-trihydroxytetrahydro-2H-pyran-2-yl)ethyl)phosphonic acid] | < 10 µM
3 | CC(=O)N1C[C@@H](O)[C@@H](O)[C@H](O)[C@H]1CCP(=O)(O)O [Compound A61, (2-((2R,3R,4R,5R)-1-acetyl-3,4,5-trihydroxypiperidin-2-yl)ethyl)phosphonic acid] | 10 to 100 µM
4 | CC(C)(C)OC(=O)N1CCC(n2cc([C@H]3O[C@H](CCP(=O)(O)O)[C@@H](O)[C@H](O)[C@@H]3O)nn2)CC1 [Compound A85, (2-((2R,3S,4S,5S,6R)-6-(1-(1-(tert-butoxycarbonyl)piperidin-4-yl)-1H-1,2,3-triazol-4-yl)-3,4,5-trihydroxytetrahydro-2H-pyran-2-yl)ethyl)phosphonic acid] | < 10 µM
5 | O=P(O)(CC[C@H]1O[C@H](Oc2ccccc2)[C@@H](O)[C@@H](O)[C@@H]1O)Cc1c(F)cccc1F [Compound A42, (2,6-difluorobenzyl) (2-((2R,3S,4S,5S,6R)-3,4,5-trihydroxy-6-phenoxytetrahydro-2H-pyran-2-yl)ethyl)phosphinic acid] | < 10 µM
6 | Nc1ccc2c(c1)Cc1cc(O[C@H]3O[C@H](CCP(=O)(O)O)[C@@H](O)[C@H](O)[C@@H]3O)ccc1-2 [Compound A76, (2-((2R,3S,4S,5S,6R)-6-((7-amino-9H-fluoren-2-yl)oxy)-3,4,5-trihydroxytetrahydro-2H-pyran-2-yl)ethyl)phosphonic acid] | < 10 µM
7 | C=CCP(=O)(O)CC[C@H]1OC(Oc2ccc(OC)cc2)[C@@H](O)[C@@H](O)[C@@H]1O (stereo partly drawn) [Compound A52, allyl(2-((2R,3S,4S,5S)-3,4,5-trihydroxy-6-(4-methoxyphenoxy)tetrahydro-2H-pyran-2-yl)ethyl)phosphinic acid] | 10 to 100 µM
8 | NC[C@H]1O[C@H](O)[C@@H](O)[C@@H](O)[C@@H]1O [Compound A41, (2S,3S,4S,5S,6R)-6-(aminomethyl)tetrahydro-2H-pyran-2,3,4,5-tetraol hydrochloride] | 10 to 100 µM
9 | COc1ccc(OC2O[C@H](CCP(=O)(O)CC3CC3(F)F)[C@@H](O)[C@H](O)[C@@H]2O)cc1 (stereo partly drawn) [Compound A58, ((2,2-difluorocyclopropyl)methyl) (2-((2R,3S,4S,5S)-3,4,5-trihydroxy-6-(4-methoxyphenoxy)tetrahydro-2H-pyran-2-yl)ethyl)phosphinic acid] | < 10 µM
10 | O=P(O)(O)CC[C@H]1OC(CCc2ccccc2)[C@@H](O)[C@@H](O)[C@@H]1O (stereo partly drawn) [Compound A13, (2-((2R,3S,4R,5S)-3,4,5-trihydroxy-6-phenethyltetrahydro-2H-pyran-2-yl)ethyl)phosphonic acid] | < 10 µM
11 | COc1ccc(O[C@H]2O[C@H](CCP(=O)(O)Cc3c(F)ccc(F)c3F)[C@@H](O)[C@H](O)[C@@H]2O)cc1 [Compound A54, (2,3,6-trifluorobenzyl) (2-((2R,3S,4S,5S)-3,4,5-trihydroxy-6-(4-methoxyphenoxy)tetrahydro-2H-pyran-2-yl)ethyl)phosphinic acid] | < 10 µM
12 | NC[C@H]1O[C@H](Oc2ccccc2)[C@@H](O)[C@@H](O)[C@@H]1O [Compound A2, (2R,3S,4S,5S,6R)-2-(aminomethyl)-6-phenoxytetrahydro-2H-pyran-3,4,5-triol] | 10 to 100 µM
13 | COc1ccc(OC2O[C@H](CCP(=O)(O)Cc3ccccn3)[C@@H](O)[C@H](O)[C@@H]2O)cc1 (stereo partly drawn) [Compound A50, (pyridin-2-ylmethyl) (2-((2R,3S,4S,5S)-3,4,5-trihydroxy-6-(4-methoxyphenoxy)tetrahydro-2H-pyran-2-yl)ethyl)phosphinic acid] | < 10 µM
14 | COCP(=O)(O)CC[C@H]1O[C@H](Oc2ccccc2)[C@@H](O)[C@@H](O)[C@@H]1O [Compound A45, methoxymethyl-[2-[(2R,3S,4S,5S,6R)-3,4,5-trihydroxy-6-phenoxy-tetrahydropyran-2-yl]ethyl]phosphinic acid] | 10 to 100 µM
15 | COc1ccc(O[C@H]2O[C@H](CCP(=O)(O)Cc3c(F)cc(F)cc3F)[C@@H](O)[C@H](O)[C@@H]2O)cc1 [Compound A55, (2,4,6-trifluorobenzyl) (2-((2R,3S,4S,5S)-3,4,5-trihydroxy-6-(4-methoxyphenoxy)tetrahydro-2H-pyran-2-yl)ethyl)phosphinic acid] | 10 to 100 µM
16 | CS(=N)(=O)CC[C@H]1O[C@H](O)[C@@H](O)[C@@H](O)[C@@H]1O (stereo partly drawn) [Compound A1, imino(methyl) (2-((2R,3S,4S,5S,6S)-3,4,5,6-tetrahydroxytetrahydro-2H-pyran-2-yl)ethyl)-16-sulfanone] | < 10 µM
17 | CC#CCP(=O)(O)CC[C@H]1OC(Oc2ccc(OC)cc2)[C@@H](O)[C@@H](O)[C@@H]1O (stereo partly drawn) [Compound A53, but-2-yn-1-yl(2-((2R,3S,4S,5S)-3,4,5-trihydroxy-6-(4-methoxyphenoxy)tetrahydro-2H-pyran-2-yl)ethyl)phosphinic acid] | 10 to 100 µM
18 | C[Si](C)(C)C#C[C@H]1O[C@H](CCP(=O)(O)O)[C@@H](O)[C@H](O)[C@@H]1O [Compound A18, (2-((2R,3S,4S,5S,6R)-3,4,5-trihydroxy-6-((trimethylsilyl)ethynyl)tetrahydro-2H-pyran-2-yl)ethyl)phosphonic acid] | < 10 µM
19 | COc1ccc(OC2O[C@H](CCP(=O)(O)Cc3ccccc3C#N)[C@@H](O)[C@H](O)[C@@H]2O)cc1 (stereo partly drawn) [Compound A49, (2-cyanophenyl)methyl-[2-[(2R,3S,4S,5S)-3,4,5-trihydroxy-6-(4-methoxyphenoxy)tetrahydropyran-2-yl]ethyl]phosphinic acid] | < 10 µM
20 | O=P(O)(CC[C@H]1O[C@H](Oc2ccc3c(c2)Cc2ccccc2-3)[C@@H](O)[C@@H](O)[C@@H]1O)Cc1c(F)cccc1F [Compound A79, (2-((2R,3S,4S,5S,6R)-6-((9H-fluoren-2-yl)oxy)-3,4,5-trihydroxytetrahydro-2H-pyran-2-yl)ethyl) (2,6-difluorobenzyl)phosphinic acid] | < 10 µM
21 | COc1ccc(OC2O[C@H](CCP(=O)(O)CC3=CCCC3)[C@@H](O)[C@H](O)[C@@H]2O)cc1 (stereo partly drawn) [Compound A78, (cyclopent-1-en-1-ylmethyl) (2-((2R,3S,4S,5S)-3,4,5-trihydroxy-6-(4-methoxyphenoxy)tetrahydro-2H-pyran-2-yl)ethyl)phosphinic acid] | < 10 µM
22 | COc1ccc(O[C@H]2O[C@H](CCP(=O)(O)Cc3c(F)cccc3Cl)[C@@H](O)[C@H](O)[C@@H]2O)cc1 [Compound A51, (2-chloro-6-fluorobenzyl) (2-((2R,3S,4S,5S,6R)-3,4,5-trihydroxy-6-(4-methoxyphenoxy)tetrahydro-2H-pyran-2-yl)ethyl)phosphinic acid] | < 10 µM
23 | O=P(O)(CC[C@H]1O[C@H](OC2CCCCC2)[C@@H](O)[C@@H](O)[C@@H]1O)Cc1ccccc1O [Compound A47, 2-[(2R,3S,4S,5S,6S)-6-(cyclohexoxy)-3,4,5-trihydroxy-tetrahydropyran-2-yl]ethyl-[(2-hydroxyphenyl)methyl]phosphinic acid] | 10 to 100 µM
24 | O=P(O)(O)C1CC1[C@H]1O[C@H](Oc2ccccc2)[C@@H](O)[C@@H](O)[C@@H]1O (stereo partly drawn) [Compound A43, [2-[(2R,3S,4S,5S,6R)-3,4,5-trihydroxy-6-phenoxy-tetrahydropyran-2-yl]cyclopropyl]phosphonic acid] | 10 to 100 µM
25 | O=P(O)(CC[C@H]1OC(O)[C@@H](O)[C@@H](O)[C@@H]1O)Cc1c(F)cccc1F (stereo partly drawn) [Compound A60, (2,6-difluorobenzyl) (2-((2R,3S,4S,5S)-3,4,5,6-tetrahydroxytetrahydro-2H-pyran-2-yl)ethyl)phosphinic acid] | 10 to 100 µM

Source: patent US20260131007A1, “Mannose 6-Phosphate Receptor Binding Compounds for the Degradation of Extracellular Proteins” (Avilar Therapeutics, Inc., priority 2023, published 2026)
